These results are taken from patent US7371728B2, “Prostate-specific antigen probes for optical imaging” (Kaohsiung Medical University, priority 2005, dated 2008).

The target of experiment [1] is T1, prostate-specific antigen (Homo sapiens, UniProt P07288). Nature of the experiment: Quenching and non-quenching study: fluorescence intensity over time after reaction with prostate-specific antigen. The following applies: 35 minutes. Type of experiment: biochemical. The text has this: FIG. 5. is a fluorescence absorption verse time diagram showing fluorescence intensity of a control peptide probe (×) for a prostate peptide substrate probe Cy-prostate-PGC (▪), control peptide probe (Δ) and a prostate peptide probe in the presence of a prostate-specific antigen (♦) according to the present invention;
At different time, a prostate peptide substrate and prostate control peptide are reacted with an enzyme of prostate-specific antigen to record its fluorescence spectrum and the results are shown in FIG. 5. […] When the reaction time for the reaction between prostate peptide substrate and the prostate-specific antigen reaches 35 minutes and the signal intensity becomes 5 times as that of the original fluorescence intensity.

For experiment [2], the target named is T1, prostate-specific antigen. Nature of the experiment: HPLC study of peptide specificity for prostate-specific antigen. The following applies: in the presence of prostate-specific antigen enzyme; fluorescence detection 480/525 nm. In kind it is biochemical. From the text:
The Study of Peptide Specificity for Prostate-Specific Antigen: • The high performance liquid chromatography is used for application in study of peptide separation, peptide purity analysis and specific enzyme-cutting specificity for a peptide substrate. […] The goal of the study of the present invention is to develop prostate peptide substrates and enzymes by in-vitro experiments.
The chromatographic diagrams of specificity analysis of the prostate peptide substrates and prostate-specific antigen are shown in FIGS. 3 and 4. The conditions of the HPLC are as follows: a reverse C18 chromatography column, mobile phase is methyl alcohol: 1% triethylamine=60:40(v/v), flow rate is 0.5 ml/min. […] There are two peaks in the spectrums if HPLC runs in the presence of the prostate-specific antigen with the retention times being 2.7 and 3.2 min as shown in FIG. 3.

Entries after “also recorded” stand apart in the source; their conditions may differ. Square brackets hold non-standard residues; d marks the D form. Ends that are not written are not given here. * marks the point of attachment. FITC = O=C1OC2(c3ccc(O)cc3Oc3cc(O)ccc32)c2ccc(NC(=S)*)cc21; Hyp = O=C(O)[C@@H]1C[C@@H](O)CN1; Chg = N[C@H](C(=O)O)C1CCCCC1

T1 sequence (P07288 25-261): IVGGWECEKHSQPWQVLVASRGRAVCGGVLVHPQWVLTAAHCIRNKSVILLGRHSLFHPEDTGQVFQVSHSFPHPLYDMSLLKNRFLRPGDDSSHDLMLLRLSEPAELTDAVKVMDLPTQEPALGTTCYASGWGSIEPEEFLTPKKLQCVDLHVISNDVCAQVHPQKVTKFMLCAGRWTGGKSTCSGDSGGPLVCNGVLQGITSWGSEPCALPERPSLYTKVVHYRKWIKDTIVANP

As to “G[Hyp]AS[Chg]QSLMK(FITC)C-NH2 [prostate peptide substrate]”, the “fluorescence signal intensity relative to the original fluorescence intensity” value in experiment [1] was 5 times. In experiment [2], the “cutting of the peptide by prostate-specific antigen (HPLC)” value is recorded as “can cut Gln-Ser residue; also recorded: one major cut”.
